Molecular target: BRD4 (Homo sapiens (Human), UniProt O60885)
Conditions: read-out: BRD4 IC50 (μM gmean)

`COC(=O)N1c2ccc3c(nc(CCn4cccn4)n3C)c2CC[C@@H]1C` [Example 11] was tested, and the IC50 was 1 to 1000 µM.

With `COC(=O)N1c2ccc3c(nc(CN4C(=O)CCc5ccccc54)n3[C@@H]3CCC[C@@H](C(=O)O)C3)c2CC[C@@H]1C` [Example 789] the IC50 was 1 to 1000 µM.

Molecule `COC(=O)N1c2ccc3c(nc(C(=O)N(C)C4CCCCC4)n3[C@@H]3CCC[C@@H](C(=O)O)C3)c2CC[C@@H]1C` [Example 939] has an IC50 of 1 to 1000 µM.

`COC(=O)N1c2ccc3c(nc(Cc4cccc(OC(C)C)c4)n3C3CC4(CNC4)C3)c2CC[C@@H]1C` [Example 99] gave an IC50 of 1 to 1000 µM.

`COC(=O)N1c2ccc3c(nc(C4(Cn5cccn5)CC4)n3[C@H]3CC[C@H](C(=O)O)CC3)c2CC[C@@H]1C` [Example 710] gave an IC50 of 1 to 1000 µM.

Molecule `COC(=O)N1c2ccc3c(nc(C[C@H](C(=O)O)c4ccccc4)n3C)c2CC[C@@H]1C` [Example 135, (S)-3-((S)-6-(methoxycarbonyl)-3,7-dimethyl-6,7,8,9-tetrahydro-3H-imidazo[4,5-f]quinolin-2-yl)-2-phenylpropanoic Acid] has an IC50 of 1 to 1000 µM.

In the case of `COC(=O)N1c2ccc3c(nc(Cc4cncc(C5CC5)n4)n3[C@@H]3CCC[C@@H](C(=O)O)C3)c2CC[C@@H]1C` [Example 665], the IC50 is reported as 1 to 1000 µM.

`COC(=O)N1c2ccc3c(nc(C4(Cn5cccn5)CC4)n3[C@@H]3CCC[C@@H](C(=O)O)C3)c2CC[C@@H]1C` [Example 753] showed an IC50 of 1 to 1000 µM.

`COC(=O)N1c2ccc3c(nc(CN4CCC(C)(C)CC4=O)n3[C@@H]3CCC[C@@H](C(=O)O)C3)c2CC[C@@H]1C` [Example 696] was tested, and the IC50 was 1 to 1000 µM.

Work on `COC(=O)N1c2ccc3c(nc(Cc4cccc(F)c4OC)n3[C@H]3CC[C@H](C(=O)O)CC3)c2CC[C@@H]1C` [Example 661] yielded an IC50 of 1 to 1000 µM.

Molecule `COC(=O)N1c2ccc3c(nc(C(C)Oc4cnccn4)n3C3CCC(C(=O)O)CC3)c2CC[C@@H]1C` (stereo partly shown) [Example 833] has an IC50 of 1 to 1000 µM.

`COC(=O)N1c2ccc3c(nc(CC(C(=O)O)c4ccc(C(F)F)cc4)n3C3COCC(F)(F)C3)c2CC[C@@H]1C` (stereo partly shown) [Example 920] showed an IC50 of 1 to 1000 µM.

`COC(=O)N1c2ccc3c(nc(CCc4cnn(C)c4)n3[C@H]3CC[C@H](C(=O)O)CC3)c2CC[C@@H]1C` [Example 34] showed an IC50 of 1 to 1000 µM.

Molecule `COC(=O)N1c2ccc3c(nc(CC4CCCOC4)n3C3CCCC(C(=O)O)C3)c2CC[C@@H]1C` (stereo partly shown) [Example 806] has an IC50 of 1 to 1000 µM.

In the case of `COC(=O)N1c2ccc3c(nc([C@@H](c4ccccc4)S(C)(=O)=O)n3[C@H]3CC[C@H](C(=O)O)CC3)c2CC[C@@H]1C` [Example 779], the IC50 is reported as 1 to 1000 µM.

In the case of `COC(=O)N1c2ccc3c(nc(Cc4ccccc4)n3[C@H]3CC[C@@H](c4nnn[nH]4)CC3)c2CC[C@@H]1C` [Example 284], the IC50 is reported as 1 to 1000 µM.

`COC(=O)N1c2ccc3c(nc(CC4CCOCC4)n3[C@@H]3CCC[C@@H](C(=O)O)C3)c2CC[C@@H]1C` [Example 863] showed an IC50 of 1 to 1000 µM.

Work on `COC(=O)N1c2ccc3c(nc(CC(C(=O)O)c4ccccc4)n3C3CCCC(OC)C3)c2CC[C@@H]1C` (stereo partly shown) [Example 455] yielded an IC50 of 1 to 1000 µM.

For `COC(=O)N1c2ccc3c(nc(Cc4ncc(Cl)cn4)n3[C@@H]3CCC[C@@H](C(=O)O)C3)c2CC[C@@H]1C` [Example 828], the IC50 was 1 to 1000 µM.

With `COC(=O)N1c2ccc3c(nc(Cc4ccccc4)n3[C@H]3CC[C@H](C#N)CC3)c2CC[C@@H]1C` [Example 255] the IC50 was 1 to 1000 µM.

Work on `COC(=O)N1c2ccc3c(nc(CC(C(=O)O)c4ccccc4)n3C3COCC(F)(F)C3)c2CC[C@@H]1C` (stereo partly shown) [Example 594] yielded an IC50 of 1 to 1000 µM.

Molecule `COC(=O)N1c2ccc3c(nc(CCn4ccccc4=O)n3CC(=O)NCCN3CCNC3=O)c2CC[C@@H]1C` [Example 395] has an IC50 of 1 to 1000 µM.

In the case of `COC(=O)N1c2ccc3c(nc(C(=O)N(C)C4CCCC4)n3[C@@H]3CCC[C@@H](C(=O)O)C3)c2CC[C@@H]1C` [Example 923], the IC50 is reported as 1 to 1000 µM.

`COC(=O)N1c2ccc3c(nc(C(O)c4ccc(F)c(F)c4)n3C3CCCC(C(=O)O)C3)c2CC[C@@H]1C` (stereo partly shown) [Example 432] gave an IC50 of 1 to 1000 µM.

With `COC(=O)N1c2ccc3c(nc(CCn4cccn4)n3CC(=O)NCc3ncco3)c2CC[C@@H]1C` [Example 340] the IC50 was 1 to 1000 µM.

`COC(=O)N1c2ccc3c(nc(CCc4cccc(OC)c4)n3C3CC4(CNC4)C3)c2CC[C@@H]1C` [Example 100] gave an IC50 of 1 to 1000 µM.

Work on `COC(=O)N1c2ccc3c(nc(Cc4ccccc4)n3C3CC4(CCNCC4)C3)c2CC[C@@H]1C` [Example 95] yielded an IC50 of 1 to 1000 µM.

`COC(=O)N1c2ccc3c(nc(CCn4ccccc4=O)n3CCCS(C)(=O)=O)c2CC[C@@H]1C` [Example 261] gave an IC50 of 1 to 1000 µM.

`COC(=O)N1c2ccc3c(nc(Cc4ccc5[nH]ccc5c4)n3[C@@H]3CCC[C@@H](C(=O)O)C3)c2CC[C@@H]1C` [Example 577] showed an IC50 of 1 to 1000 µM.

`COC(=O)N1c2ccc3c(nc(CCc4ccccc4)n3C)c2CC[C@@H]1C` [Example 10] gave an IC50 of 1 to 1000 µM.

Molecule `COC(=O)N1c2ccc3c(nc(Cc4ccccc4)n3CCO)c2CC[C@@H]1C` [Example 287, methyl (S)-2-benzyl-3-(2-hydroxyethyl)-7-methyl-3,7,8,9-tetrahydro-6H-imidazo[4,5-f]quinoline-6-carboxylate] has an IC50 of 1 to 1000 µM.

With `COC(=O)N1c2ccc3c(nc(Cc4ccccc4)n3C3CC4CCC(C3)N4)c2CC[C@@H]1C` (stereo partly shown) [Example 83] the IC50 was 1 to 1000 µM.

With `COC(=O)N1c2ccc3c(nc(C[C@H](C)c4ccccc4)n3C)c2CC[C@@H]1C` [Example 2, methyl (S)-3,7-dimethyl-2-((S)-2-phenylpropyl)-3,7,8,9-tetrahydro-6H-imidazo[4,5-f]quinoline-6-carboxylate] the IC50 was 1 to 1000 µM.

For `COC(=O)N1c2ccc3c(nc(CC(C(=O)O)c4ccc(C)cc4)n3C3COCC(F)(F)C3)c2CC[C@@H]1C` (stereo partly shown) [Example 700], the IC50 was 1 to 1000 µM.

`COC(=O)N1c2ccc3c(nc(Cc4ccc(Cl)cn4)n3[C@@H]3CCC[C@@H](C(=O)O)C3)c2CC[C@@H]1C` [Example 663] gave an IC50 of 1 to 1000 µM.

Work on `COC(=O)N1c2ccc3c(nc(CC(C(=O)O)c4ccccc4)n3C3COCC(F)(F)C3)c2CC[C@@H]1C` (stereo partly shown) [Example 903] yielded an IC50 of 1 to 1000 µM.

`COC(=O)N1c2ccc3c(nc(CCn4ccccc4=O)n3CC(=O)NCC#N)c2CC[C@@H]1C` [Example 394] gave an IC50 of 1 to 1000 µM.

`COC(=O)N1c2ccc3c(nc(CN4CCC5(CCC5)CC4=O)n3[C@@H]3CCC[C@@H](C(=O)O)C3)c2CC[C@@H]1C` [Example 634] showed an IC50 of 1 to 1000 µM.

`COC(=O)N1c2ccc3c(nc(Cc4ccc(OC(F)F)cc4)n3[C@H]3CC[C@H](C(=O)O)CC3)c2CC[C@@H]1C` [Example 544] showed an IC50 of 1 to 1000 µM.

`COC(=O)N1c2ccc3c(nc(Nc4ccncc4F)n3[C@H]3CC[C@H](C(=O)O)CC3)c2CC[C@@H]1C` [Example 933] showed an IC50 of 1 to 1000 µM.

In the case of `COC(=O)N1c2ccc3c(nc(CN4CCc5ccccc5C4=O)n3[C@@H]3CCC[C@@H](C(=O)O)C3)c2CC[C@@H]1C` [Example 758], the IC50 is reported as 1 to 1000 µM.

For `COC(=O)N1c2ccc3c(nc(C(C)Cn4cc(C(F)F)cn4)n3C3CCCC(C(=O)O)C3)c2CC[C@@H]1C` (stereo partly shown) [Example 492], the IC50 was 1 to 1000 µM.

In the case of `COC(=O)N1c2ccc3c(nc(C(O)c4ccc(Cl)cn4)n3C3CCCC(C(=O)O)C3)c2CC[C@@H]1C` (stereo partly shown) [Example 610], the IC50 is reported as 1 to 1000 µM.

`COC(=O)N1c2ccc3c(nc(CCn4ccccc4=O)n3CC(=O)NC3CCOCC3)c2CC[C@@H]1C` [Example 386] was tested, and the IC50 was 1 to 1000 µM.

With `COC(=O)N1c2ccc3c(nc(C(C)(O)c4ccccc4)n3C3CCCC(C(=O)O)C3)c2CC[C@@H]1C` (stereo partly shown) [Example 607] the IC50 was 1 to 1000 µM.

`COC(=O)N1c2ccc3c(nc(C(C)Oc4cnccn4)n3C3CCC(C(=O)O)CC3)c2CC[C@@H]1C` (stereo partly shown) [Example 887] gave an IC50 of 1 to 1000 µM.

`COC(=O)N1c2ccc3[nH]c(Cc4ccccc4)nc3c2CC[C@@H]1C` [Example 9] gave an IC50 of 1 to 1000 µM.

With `COC(=O)N1c2ccc3c(nc(CCn4cccn4)n3CC(=O)NC3CCOCC3)c2CC[C@@H]1C` [Example 358] the IC50 was 1 to 1000 µM.

`COC(=O)N1c2ccc3c(nc(Cc4ccc(NC(C)=O)c(F)c4)n3[C@H]3CC[C@H](C(=O)O)CC3)c2CC[C@@H]1C` [Example 639] was tested, and the IC50 was 1 to 1000 µM.

For `COC(=O)N1c2ccc3c(nc(CC(C(=O)O)c4ccc(C(F)F)cc4)n3C3CCCOC3)c2CC[C@@H]1C` (stereo partly shown) [Example 584], the IC50 was 1 to 1000 µM.

For `COC(=O)N1c2ccc3c(nc(CC(C(=O)O)c4ccc(C)cc4)n3C3COCC(F)(F)C3)c2CC[C@@H]1C` (stereo partly shown) [Example 927], the IC50 was 1 to 1000 µM.

In the case of `COC(=O)N1c2ccc3c(nc(CCn4cccn4)n3CCN3CC[C@H](NC(C)=O)C3)c2CC[C@@H]1C` [Example 310], the IC50 is reported as 1 to 1000 µM.

`COC(=O)N1c2ccc3c(nc(Cc4cnc5cc[nH]c5n4)n3[C@@H]3CCC[C@@H](C(=O)O)C3)c2CC[C@@H]1C` [Example 795] showed an IC50 of 1 to 1000 µM.

In the case of `COC(=O)N1c2ccc3c(nc(CCn4cccn4)n3CC(=O)NCc3ncccn3)c2CC[C@@H]1C` [Example 337], the IC50 is reported as 1 to 1000 µM.

`COC(=O)N1c2ccc3c(nc(CCn4cccn4)n3CCN3CCC(C#N)CC3)c2CC[C@@H]1C` [Example 308] was tested, and the IC50 was 1 to 1000 µM.

`COC(=O)N1c2ccc3c(nc(CCn4ccccc4=O)n3CC(=O)NCc3ncnn3C)c2CC[C@@H]1C` [Example 372] gave an IC50 of 1 to 1000 µM.

For `COC(=O)N1c2ccc3c(nc(Cc4cccc(OC(C)C)n4)n3[C@H]3CC[C@H](C(=O)O)CC3)c2CC[C@@H]1C` [Example 780], the IC50 was 1 to 1000 µM.

With `COC(=O)N1c2ccc3c(nc(Cc4ccccc4)n3[C@@H]3CC[C@@H](C(=O)O)OC3)c2CC[C@@H]1C` [Example 72, (2S,5R)-5-((S)-2-benzyl-6-(methoxycarbonyl)-7-methyl-6,7,8,9-tetrahydro-3H-imidazo[4,5-f]quinolin-3-yl)tetrahydro-2H-pyran-2-carboxylic Acid] the IC50 was 1 to 1000 µM.

In the case of `COC(=O)N1c2ccc3c(nc(Cn4ccccc4=O)n3C3CCOCC3)c2CC[C@@H]1C` [Example 259], the IC50 is reported as 1 to 1000 µM.

For `COC(=O)N1c2ccc3c(nc(CCn4cccn4)n3CC(=O)NCC3(C)COC3)c2CC[C@@H]1C` [Example 364], the IC50 was 1 to 1000 µM.

`COC(=O)N1c2ccc3c(nc(Cc4ccc(N5CCCC5=O)cc4)n3[C@@H]3CCC[C@@H](C(=O)O)C3)c2CC[C@@H]1C` [Example 858] gave an IC50 of 1 to 1000 µM.

`COC(=O)N1c2ccc3c(nc(OCCc4ccccc4)n3[C@H]3CC[C@H](C(=O)O)CC3)c2CC[C@@H]1C` [Example 807] showed an IC50 of 1 to 1000 µM.

Molecule `COC(=O)N1c2ccc3c(nc(CCc4ccn(C)n4)n3[C@H]3CC[C@H](C(=O)O)CC3)c2CC[C@@H]1C` [Example 45] has an IC50 of 1 to 1000 µM.

Work on `COC(=O)N1c2ccc3c(nc(C(C)Cn4cc(Cl)cn4)n3C3CCS(=O)(=O)C3)c2CC[C@@H]1C` (stereo partly shown) [Example 930] yielded an IC50 of 1 to 1000 µM.
